{
  "source": "patent US20240238458A1",
  "about": "“COMPOUNDS TARGETING FIBROBLAST-ACTIVATION PROTEIN AND METHODS OF USE THEREOF” (Purdue Research Foundation, priority 2021, published 2024)",
  "system": "phosphorylation of Akt",
  "assay": "Inhibition of phosphorylation of Akt by FAP5-PI3K inhibitors in TGF-β1 stimulated primary HLF (western blot)",
  "format": "cell-based",
  "conditions": "24 hours and 48 hours of incubation, compounds with non-releasable linkers",
  "description": "Primary HLF with passage number #˜8 were seeded in Dulbecco's Modified Eagle Medium (DMEM) with 10% fetal bovine serum (FBS) (˜100,000 cells/well) in 12 well plates to achieve ˜80% confluency. The cells were then starved in DMEM with 0.4% FBS for 24 hours, followed by stimulation by 10 ng/mL transforming growth factor-beta 1 (TGF-β1) for 24 hours.\nAfter stimulation, cells were incubated with the FAP5-PI3K inhibitors for 2 hours, followed by replacement of culture media containing 2 ng/mL TGF-β1 and incubated for 24 hours (see FIG. 21) and 48 hours (see FIG. 22). All wells are added with 0.1% of DMSO as vehicle.\nCells were detached using trypsin and lysed with lysis buffer, proteins from cells were extracted for western blot analysis.",
  "data": [
    {"smiles": "COc1ncc(-c2ccc3nccc(-c4ccc(COC(=O)NCCNC(=O)CCc5cccc6c5CN(C(=O)C[C@@H]5C[C@@H](C(=O)N7CC(F)(F)C[C@H]7C#N)NC5=O)C6)nc4)c3c2)cc1NS(=O)(=O)c1ccc(F)cc1F", "note": "[FAP5-Carbamate-PI3ki]", "values": [
      {"measurement": "inhibition of phosphorylation of Akt (pAkt normalized to tAkt)", "result": "consistently performed better than FAP5-Ester-PI3Ki and FAP5-PI3Ki-NR"}
    ]}
  ]
}
